Some test systems named below: OVCAR-8; MOLT-4; OVCAR-5; Malme-3M; LOX IMVI; HL-60; NCI-H23; SK-MEL-5; ACHN; OVCAR-3; EKVX; UO-31; SK-MEL-28; A549; M14; HOP-92; HCT-15; RXF 393; CAKI-1; OVCAR-4.
Common to all, as to assay: DTP human tumour cell line panel, 48 h

Values joined by “and” are separate entries in the source; they are usually repeats but may differ in a detail not shown here. Equal values may be shown once.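 Values below derive from 48-hour exposures of cells grown in 96-well plates, with endpoints linearly interpolated between the two concentrations bracketing the appropriate inhibition level. GI50 marks 50% less growth.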 Active and inactive are the calls of the source. No stated cut-off is given here; in the data, active = GI50 up to about 1.1 µM and inactive = higher. Non-standard residues stand in square brackets, D forms with d. Residues, ends and D or L forms follow the SMILES beside them. ξ: configuration not given here. *: point of attachment. ξF = NC(Cc1ccccc1)C(=O)O; Cbz = O=C(OCc1ccccc1)*; Aib = CC(C)(N)C(=O)O

The term GI50 denotes the concentration at which growth is held to half of that of the control.

Regarding `C/C(CCOC1CCCCO1)=C(\C)[Si](C)(C)C` (configuration not stated), the GI50 was > 100 µM (inactive) in the test on OVCAR-8; 72.8 µM (inactive) in the test on MOLT-4; > 100 µM (inactive) in the test on OVCAR-5; > 100 µM (inactive) with Malme-3M; > 100 µM (inactive) in the test with LOX IMVI; 93.3 µM (inactive) in the test on HL-60. Further, the GI50 in the test with NCI-H23, in the test on SK-MEL-5, in the test with ACHN, in the test on OVCAR-3, in the test on EKVX and in the test on UO-31 was > 100 µM (inactive) each time. For the same compound, the GI50 was > 100 µM (inactive) in the test on SK-MEL-28; > 100 µM (inactive) in the test on A549; > 100 µM (inactive) with M14; > 100 µM (inactive) in the test on HOP-92; over 100 µM in the test with HCT-15.
As for `CCN(CC)CCn1c(=O)c2c(C)c3oc4ccccc4oc3c(C)c2c1=O`, the GI50 in the test with OVCAR-8, in the test on MOLT-4, in the test with OVCAR-5, in the test on Malme-3M, in the test with LOX IMVI and in the test on RXF 393 was > 100 µM (inactive) each time. The GI50 in the test on HL-60, in the test with CAKI-1, in the test on SK-MEL-5, with ACHN, with EKVX and in the test on OVCAR-4 was > 100 µM (inactive) in each case. The GI50 with A549 was > 100 µM (inactive); with M14, > 100 µM (inactive); with HOP-92, > 100 µM (inactive); in the test with HCT-15, over 100 µM.
`O=C1c2[nH]c3ccc(Br)cc3c2CCN1Cc1ccc(Cl)cc1`: the GI50 in the test on OVCAR-8 is 18.7 µM (inactive); in the test on OVCAR-5, 12.5 µM (inactive); with Malme-3M, 15.3 µM (inactive); with LOX IMVI, 12.5 µM (inactive); with RXF 393, 16.9 µM (inactive); in the test with HL-60, 17.3 µM (inactive). In addition, the GI50 with NCI-H23 is 17.1 µM (inactive); with CAKI-1, 19.5 µM (inactive); in the test with SK-MEL-5, 10.9 µM (inactive); in the test with ACHN, 10.8 µM (inactive); in the test on OVCAR-3 it was 15.2 µM (inactive); with EKVX, > 100 µM (inactive). The GI50 is 16.4 µM (inactive) in the test on UO-31; 14.7 µM (inactive) in the test with SK-MEL-28; 18.6 µM (inactive) in the test on OVCAR-4; 12.7 µM (inactive) with A549; 13.2 µM (inactive) in the test with M14; 16.2 µM (inactive) with HOP-92. In addition, the GI50 in the test on HCT-15 was 3.99 µM.
Turning to `C=CCCCC12CCCc3cccc(c31)NC2=O` (configuration not stated), the GI50 in the test with MOLT-4 was 18.8 µM (inactive); with OVCAR-5, 19.3 µM (inactive); in the test on Malme-3M, 15.6 µM (inactive); in the test on LOX IMVI it was 21.6 µM (inactive); in the test on RXF 393, 17.6 µM (inactive); in the test with HL-60, 15.5 µM (inactive). Moreover, the GI50 in the test with NCI-H23 was 18.1 µM (inactive); in the test on SK-MEL-5 it was 16.3 µM (inactive); with ACHN it was 28.1 µM (inactive); in the test on OVCAR-3, 18 µM (inactive); with EKVX it was 19.1 µM (inactive); in the test with UO-31, 30.4 µM (inactive). For the same compound, the GI50 is 18.9 µM (inactive) in the test on OVCAR-4, 20.2 µM (inactive) with A549, 14.4 µM (inactive) in the test with M14 and 13.8 µM (inactive) in the test on HOP-92.
On to `O=c1sc2ccccc2n1CC1CS1` (configuration not stated), for which the GI50 in the test with OVCAR-8, with MOLT-4, in the test on OVCAR-5, in the test on Malme-3M, in the test with LOX IMVI and in the test with RXF 393 was > 100 µM (inactive) each time. Besides, the GI50 in the test on HL-60, with CAKI-1, in the test with ACHN, with OVCAR-3, in the test on EKVX and with UO-31 was > 100 µM (inactive) each time. The GI50 in the test with SK-MEL-28 was > 100 µM (inactive); in the test on OVCAR-4, > 100 µM (inactive); in the test on A549, > 100 µM (inactive); in the test with M14, > 100 µM (inactive); with HOP-92, > 100 µM (inactive); in the test on HCT-15 it was over 100 µM.
For `c1cc(CNC2C3CCC(C3)C2c2c[nH]c3ccccc23)cc(CNC2C3CCC(C3)C2c2c[nH]c3ccccc23)c1` (configuration not stated), the GI50 in the test on OVCAR-8 is 1.4 µM (inactive) and 1.46 µM (inactive); in the test on OVCAR-5, 1.84 µM (inactive) and 1.82 µM (inactive); in the test on Malme-3M, 1.87 µM (inactive) and 1.77 µM (inactive); in the test on LOX IMVI, 555 nM (active) and 232 nM (active); in the test with RXF 393, 1.22 µM (inactive) and 1.31 µM (inactive); in the test on NCI-H23 it was 1.68 µM (inactive) and 1.77 µM (inactive). Moreover, the GI50 with CAKI-1 is 1.65 µM (inactive) and 1.73 µM (inactive); with SK-MEL-5, 1.85 µM (inactive) and 1.91 µM (inactive); in the test with ACHN it was 1.19 µM (inactive) and 1.57 µM (inactive); in the test with OVCAR-3, 1.76 µM (inactive) and 1.71 µM (inactive); with EKVX, 1.76 µM (inactive) and 1.58 µM (inactive); with UO-31, 229 nM (active) and 160 nM (active). Moreover, the GI50 in the test with OVCAR-4 was 1.7 µM (inactive) and 1.58 µM (inactive); in the test on A549 it was 600 nM (active) and 773 nM (active); with M14, 667 nM (active) and 638 nM (active).
Turning to `CN(C)C(=S)N/N=C(\C(=N/NC(=S)N(C)C)c1ccccn1)c1ccccn1`, the GI50 in the test with OVCAR-8 was 7.14 µM (inactive); in the test with OVCAR-5, 14 µM (inactive); with Malme-3M it was 12.9 µM (inactive); with LOX IMVI, 11.8 µM (inactive); in the test with RXF 393, 5.21 µM (inactive); in the test on NCI-H23 it was 12.3 µM (inactive). Also, the GI50 was 14.8 µM (inactive) in the test on CAKI-1; 9.02 µM (inactive) with SK-MEL-5; 6.61 µM (inactive) with ACHN; 3.85 µM (inactive) with OVCAR-3; 12 µM (inactive) with EKVX; 6.7 µM (inactive) in the test with UO-31. Moreover, the GI50 in the test on SK-MEL-28 was 16.4 µM (inactive); in the test on OVCAR-4, 7.28 µM (inactive); with A549 it was 6.55 µM (inactive); in the test on M14 it was 11.4 µM (inactive); in the test with HOP-92 it was 9.35 µM (inactive); with HCT-15 it was 6.81 µM.
For `COc1ccc(N2C(=O)C(=O)N(C)C2=O)c2ccccc12`, the GI50 in the test on OVCAR-8, in the test on MOLT-4, with OVCAR-5, with Malme-3M, with LOX IMVI and in the test on RXF 393 was > 10 µM (inactive) in each case. For the same compound, the GI50 with HL-60, in the test with NCI-H23, in the test with CAKI-1, in the test on SK-MEL-5, in the test on ACHN and with OVCAR-3 was > 10 µM (inactive) each time. In addition, the GI50 in the test on EKVX, in the test on UO-31, in the test with SK-MEL-28, with OVCAR-4, in the test on A549 and with M14 was > 10 µM (inactive) in each case. In the test with HCT-15, this compound came in with a GI50 of over 10 µM.
As to `COc1ccc(N2C(=O)C(=O)C3(CCCCC3)C2=O)c2ccccc12`, the GI50 in the test on OVCAR-8, in the test on MOLT-4, in the test with OVCAR-5, in the test on Malme-3M, in the test on LOX IMVI and with RXF 393 was > 10 µM (inactive) each time. For the same compound, the GI50 with HL-60, with NCI-H23, in the test on CAKI-1, in the test with SK-MEL-5, in the test with ACHN and in the test with EKVX was > 10 µM (inactive) each time. The GI50 in the test on UO-31 was 9.77 µM (inactive); in the test on SK-MEL-28, > 10 µM (inactive); in the test with OVCAR-4 it was > 10 µM (inactive); with A549 it was > 10 µM (inactive); with M14 it was > 10 µM (inactive); in the test with HCT-15, over 10 µM.
For the compound `CCOC(=O)CNC(=O)C(Cc1ccccc1)NC(=O)C(C)(C)NC(=O)OCc1ccccc1` (configuration not stated) (Cbz-[Aib]-[ξF]-Gly-OEt), the GI50 was > 100 µM (inactive) in the test with OVCAR-8; 29.4 µM (inactive) in the test with MOLT-4; > 100 µM (inactive) in the test with OVCAR-5; 18.6 µM (inactive) in the test on Malme-3M; 49.4 µM (inactive) with LOX IMVI; 32.9 µM (inactive) in the test with HL-60. The GI50 in the test with CAKI-1 was > 100 µM (inactive); with SK-MEL-5, 64.1 µM (inactive); with ACHN, > 100 µM (inactive); in the test on OVCAR-3, 21.5 µM (inactive); in the test with EKVX it was > 100 µM (inactive); in the test with UO-31, > 100 µM (inactive). The GI50 was 17.9 µM (inactive) with SK-MEL-28; > 100 µM (inactive) with OVCAR-4; > 100 µM (inactive) with A549; 37.7 µM (inactive) with M14; > 100 µM (inactive) in the test with HOP-92; over 100 µM in the test on HCT-15.
Consider `CN(C)CCNc1ccc(NCC[N+](C)(C)Cc2ccc([N+](=O)[O-])cc2)c2c1C(=O)c1ccccc1C2=O`, for which the GI50 is > 25 µM (inactive) in the test with OVCAR-8; 9.04 µM (inactive) in the test with MOLT-4; > 25 µM (inactive) in the test with OVCAR-5; 22.6 µM (inactive) with Malme-3M; 15 µM (inactive) with LOX IMVI; > 25 µM (inactive) with RXF 393. The GI50 was 4.28 µM (inactive) in the test on HL-60; 20.2 µM (inactive) in the test with NCI-H23; 3.01 µM (inactive) in the test on CAKI-1; 12.2 µM (inactive) in the test with SK-MEL-5; 12.1 µM (inactive) in the test on ACHN; 12 µM (inactive) with OVCAR-3. Also, the GI50 with EKVX was > 25 µM (inactive); with UO-31, 9.51 µM (inactive); with SK-MEL-28 it was > 25 µM (inactive); in the test on A549 it was 23.4 µM (inactive); with M14 it was 21.6 µM (inactive); in the test with HOP-92, > 25 µM (inactive).
